Source: patent publication US12723063B2, “GIPR-agonist compounds” (Eli Lilly and Company, priority 2019, dated 2026)

Columns and labels:
human GLP-1R = molecular target: T1, human GLP-1R (Homo sapiens, UniProt P43220); assay: [125I]-GLP-1 binding, SPA with WGA beads, 0.1% bacitracin; details: geometric mean, read-out: hGLP1R Ki
T1 construct: expressed in transfected cells; crude membranes
Procedure, shortened: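 Binding buffer was 25 mM HEPES pH 7.4 with 2.5 mM CaCl2, 1 mM MgCl2, 0.1% (w/v) bacitracin, 0.003% Tween-20 and EDTA-free protease inhibitors. Four-parameter regression gave IC50, converted to Ki (geometric mean, SEM, n independent days).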

[1] = Pharmacokinetics in male cynomolgus monkeys, single subcutaneous administration; assay type: in vivo, cynomolgus monkey; details: 50 nmol/kg single SC, mean n = 2; for CL/F / Tmax / half-life: cynomolgus monkey, plasma
Protocol: The pharmacokinetics of select Examples are evaluated following a single subcutaneous administration of 50 nmol/kg to male cynomolgus monkeys. Blood samples are collected over 504 hours and resulting individual plasma concentrations are used to calculate pharmacokinetic parameters. Peptide plasma (K3 EDTA) concentrations are determined using a qualified LC/MS method that measured the intact mass of the compound. Each peptide and an analog as an internal standard are extracted from 100% cynomolgus monkey plasma using a protein precipitation method. Instruments are combined for LC/MS detection.

[2] = system: CD4+ T cells (CD8+ T cell-depleted PBMCs); assay: CD4+ T cell proliferation assay (immunogenicity assessment); assay type: cell-based, human; details: 0.33 μM, 7 days, 10 healthy donors; positive response CDI>2.5
Protocol: Protein therapeutics that induce less than 30% positive response in the CD4+ T cell proliferation assay are associated with a low risk of immunogenicity. Briefly, to assess the propensity for a clinical immunogenic response to the compounds of Examples 1, 2, 3, 5, and 6, CD8+ T cell-depleted peripheral blood mononuclear cells (PBMCs) are prepared and labeled with carboxyfluorescein diacetate succinimidyl ester (CFSE; Invitrogen) from a cohort of 10 healthy donors with diverse human leukocyte antigen (HLA) class II haplotypes. Each donor is tested in triplicate with 2.0 mL media control, keyhole limpet hemocyanin (KLH: 0.33 μM), and the compounds of Examples 1, 2, 3, 5, and 6 (0.33 μM). Cultures are incubated for 7 days at 37° C. with 5% CO2. On day 7, samples are analyzed by flow cytometry using a BD LSR II Fortessa (Becton Dickinson; Franklin Lakes, NJ), equipped with a high throughput sampler (HTS). Data is analyzed using FlowJo® Software (FlowJo, LLC/TreeStar; Ashland, OR).
• Cell Division Index (“CDI”): proportion of divided CD4+ T cells to the total number of CD4+ T cells in stimulated versus unstimulated samples.

[3] = Pharmacokinetics in male Sprague Dawley rats, single subcutaneous administration; assay type: in vivo, Sprague Dawley rat; details: 100 nmol/kg single SC, mean n = 3 (example 3 n = 1); for CL/F / Tmax / half-life: rat, plasma
Protocol: The pharmacokinetics of select Examples are evaluated following a single subcutaneous (SC) administration of 100 nmol/kg to male Sprague Dawley rats. Blood samples are collected over 168 hours following SC administration. Pharmacokinetic parameters are calculated using individual plasma concentrations. A qualified LC/MS method that measures the intact mass of the Example is used to determine plasma (K3 EDTA) concentrations. Each peptide and an analog as an internal standard are extracted from 100% rat plasma using a protein precipitation method. Instruments are combined for LC/MS detection. Mean pharmacokinetic parameters for the Examples are shown in […]

T1 sequence (P43220 24-463): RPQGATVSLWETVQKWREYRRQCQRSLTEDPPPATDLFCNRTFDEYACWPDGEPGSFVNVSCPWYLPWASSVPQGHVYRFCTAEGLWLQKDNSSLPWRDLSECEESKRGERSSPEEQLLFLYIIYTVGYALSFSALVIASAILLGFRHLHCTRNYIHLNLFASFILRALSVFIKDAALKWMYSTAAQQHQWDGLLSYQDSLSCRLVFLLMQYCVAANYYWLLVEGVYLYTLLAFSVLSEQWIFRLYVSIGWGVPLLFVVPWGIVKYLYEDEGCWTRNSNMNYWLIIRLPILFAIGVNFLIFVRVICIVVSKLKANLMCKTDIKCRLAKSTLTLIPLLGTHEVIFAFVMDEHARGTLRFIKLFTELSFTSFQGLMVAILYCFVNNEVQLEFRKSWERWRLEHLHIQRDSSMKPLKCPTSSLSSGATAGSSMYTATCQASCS

| SMILES | Ki (human GLP-1R) [nM] | AUCInf/Dose [1] [hr*kg*nmol/L/nmol] | Cmax/Dose [1] [kg*nmol/L/nmol] | CL/F [1] [mL/h/kg] | Tmax [1] [h] | half-life [1] [h] | % Donor Response (n = 10) [2] [%] | AUCInf/Dose [3] [hr*kg*nmol/L/nmol] | Cmax/Dose [3] [kg*nmol/L/nmol] | CL/F [3] [mL/h/kg] | Tmax [3] [h] | half-life [3] [h] |
| --- | --- | --- | --- | --- | --- | --- | --- | --- | --- | --- | --- | --- |
| CC[C@H](C)[C@H](NC(=O)[C@H](CO)NC(=O)[C@H](Cc1ccc(O)cc1)NC(=O)[C@H](CC(=O)O)NC(=O)[C@H](CO)NC(=O)[C@@H](NC(=O)[C@H](Cc1ccccc1)NC(=O)[C@@H](NC(=O)CNC(=O)[C@H](CCC(=O)O)NC(=O)[C@@H](C)NC(=O)[C@@H](N)Cc1ccc(O)cc1)[C@@H](C)O)[C@@H](C)CC)C(=O)N[C@@H](CC(C)C)C(=O)N[C@@H](CC(C)C)C(=O)N[C@@H](CC(=O)O)C(=O)N[C@@H](CCCCN)C(=O)N[C@@H](CCCCNC(=O)COCCOCCNC(=O)COCCOCCNC(=O)CC[C@H](NC(=O)CCCCCCCCCCCCCCCCCCC(=O)O)C(=O)O)C(=O)N[C@@H](C)C(=O)N[C@@H](CCC(N)=O)C(=O)NC(C)(C)C(=O)N[C@@H](CC(=O)O)C(=O)N[C@@H](Cc1ccccc1)C(=O)N[C@H](C(=O)N[C@@H](CC(N)=O)C(=O)N[C@@H](Cc1c[nH]c2ccccc12)C(=O)N[C@@H](CC(C)C)C(=O)N[C@@H](CC(C)C)C(=O)N[C@@H](C)C(=O)N[C@@H](CCC(N)=O)C(=O)NCC(=O)N1CCC[C@H]1C(=O)N[C@@H](CO)C(=O)N[C@@H](CO)C(=O)NCC(=O)N[C@@H](C)C(=O)N1CCC[C@H]1C(=O)N1CCC[C@H]1C(=O)N1CCC[C@H]1C(=O)N[C@@H](CO)C(N)=O)C(C)C [Example 1] | 57.8 | 786 | 7.20 | 1.27 | 24 | 71.1 | 0 | 280 | 3.62 | 3.57 | 24 | 37.4 |
| CC[C@H](C)[C@H](NC(=O)[C@H](CCCCN)NC(=O)[C@H](CC(=O)O)NC(=O)[C@H](CC(C)C)NC(=O)[C@](C)(CC(C)C)NC(=O)[C@@H](NC(=O)[C@H](CO)NC(=O)[C@H](Cc1ccc(O)cc1)NC(=O)[C@H](CC(=O)O)NC(=O)[C@H](CO)NC(=O)[C@@H](NC(=O)[C@H](Cc1ccccc1)NC(=O)[C@@H](NC(=O)CNC(=O)[C@H](CCC(=O)O)NC(=O)C(C)(C)NC(=O)[C@@H](N)Cc1ccc(O)cc1)[C@@H](C)O)[C@@H](C)CC)[C@@H](C)CC)C(=O)N[C@@H](Cc1c[nH]cn1)C(=O)N[C@@H](CCC(N)=O)C(=O)NC(C)(C)C(=O)N[C@@H](CC(=O)O)C(=O)N[C@@H](Cc1ccccc1)C(=O)N[C@H](C(=O)N[C@@H](CCC(=O)O)C(=O)N[C@@H](Cc1ccc(O)cc1)C(=O)N[C@@H](CCCCNC(=O)COCCOCCNC(=O)COCCOCCNC(=O)CC[C@H](NC(=O)CCCCCCCCCCCCCCCCCCC(=O)O)C(=O)O)C(=O)N[C@@H](CC(C)C)C(=O)N[C@@H](CCC(=O)O)C(=O)NCC(=O)NCC(=O)N1CCC[C@H]1C(=O)N[C@@H](CO)C(=O)N[C@@H](CO)C(=O)NCC(=O)N[C@@H](C)C(=O)N1CCC[C@H]1C(=O)N1CCC[C@H]1C(=O)N1CCC[C@H]1C(=O)N[C@@H](CO)C(N)=O)C(C)C [Example 5] | > 913 | 2262 | 12.0 | 0.44 | 120 | 128 | 0 | 239 | 4.61 | 4.2 | 24 | 27.1 |
| CC[C@H](C)[C@H](NC(=O)[C@H](CO)NC(=O)[C@H](Cc1ccc(O)cc1)NC(=O)[C@H](CC(=O)O)NC(=O)[C@H](CO)NC(=O)[C@@H](NC(=O)[C@H](Cc1ccccc1)NC(=O)[C@@H](NC(=O)CNC(=O)[C@H](CCC(=O)O)NC(=O)[C@@H](C)NC(=O)[C@@H](N)Cc1ccc(O)cc1)[C@@H](C)O)[C@@H](C)CC)C(=O)N[C@@H](CC(C)C)C(=O)N[C@@H](CC(C)C)C(=O)N[C@@H](CC(=O)O)C(=O)N[C@@H](CCCCN)C(=O)N[C@@H](CCCCNC(=O)COCCOCCNC(=O)COCCOCCNC(=O)CC[C@H](NC(=O)CCCCCCCCCCCCCCCCC(=O)O)C(=O)O)C(=O)N[C@@H](C)C(=O)N[C@@H](CCC(N)=O)C(=O)NC(C)(C)C(=O)N[C@@H](CC(=O)O)C(=O)N[C@@H](Cc1ccccc1)C(=O)N[C@H](C(=O)N[C@@H](CC(N)=O)C(=O)N[C@@H](Cc1c[nH]c2ccccc12)C(=O)N[C@@H](CC(C)C)C(=O)N[C@@H](CC(C)C)C(=O)N[C@@H](C)C(=O)N[C@@H](CCC(N)=O)C(=O)NCC(=O)N1CCC[C@H]1C(=O)N[C@@H](CO)C(=O)N[C@@H](CO)C(=O)NCC(=O)N[C@@H](C)C(=O)N1CCC[C@H]1C(=O)N1CCC[C@H]1C(=O)N1CCC[C@H]1C(=O)N[C@@H](CO)C(N)=O)C(C)C [Example 2] | 77.9 | 624 | 6.92 | 1.61 | 6 | 51.8 | 10 | 304 | 5.47 | 3.3 | 12 | 26.9 |
| CC[C@H](C)[C@H](NC(=O)[C@H](CCCN)NC(=O)[C@H](CC(=O)O)NC(=O)[C@H](CC(C)C)NC(=O)[C@](C)(CC(C)C)NC(=O)[C@@H](NC(=O)[C@H](CO)NC(=O)[C@H](Cc1ccc(O)cc1)NC(=O)[C@H](CC(=O)O)NC(=O)[C@H](CO)NC(=O)[C@@H](NC(=O)[C@H](Cc1ccccc1)NC(=O)[C@@H](NC(=O)CNC(=O)[C@H](CCC(=O)O)NC(=O)C(C)(C)NC(=O)[C@@H](N)Cc1ccc(O)cc1)[C@@H](C)O)[C@@H](C)CC)[C@@H](C)CC)C(=O)N[C@@H](Cc1c[nH]cn1)C(=O)N[C@@H](CCC(N)=O)C(=O)NC(C)(C)C(=O)N[C@@H](CC(=O)O)C(=O)N[C@@H](Cc1ccccc1)C(=O)N[C@H](C(=O)N[C@@H](CCC(=O)O)C(=O)N[C@@H](Cc1ccc(O)cc1)C(=O)N[C@@H](CCCCNC(=O)COCCOCCNC(=O)COCCOCCNC(=O)CC[C@H](NC(=O)CCCCCCCCCCCCCCCCCCC(=O)O)C(=O)O)C(=O)N[C@@H](CC(C)C)C(=O)N[C@@H](CCC(=O)O)C(=O)NCC(=O)NCC(=O)N1CCC[C@H]1C(=O)N[C@@H](CO)C(=O)N[C@@H](CO)C(=O)NCC(=O)N[C@@H](C)C(=O)N1CCC[C@H]1C(=O)N1CCC[C@H]1C(=O)N1CCC[C@H]1C(=O)N[C@@H](CO)C(N)=O)C(C)C [Example 6] | 571 | 1382 | 7.83 | 0.77 | 6 | 129 | 0 | 271 | 4.07 | 3.69 |  | 34.8 |
| CC[C@H](C)[C@H](NC(=O)[C@H](Cc1ccccc1)NC(=O)[C@@H](NC(=O)CNC(=O)[C@H](CCC(=O)O)NC(=O)C(C)(C)NC(=O)[C@@H](N)Cc1ccc(O)cc1)[C@@H](C)O)C(=O)N[C@@H](CO)C(=O)N[C@@H](CC(=O)O)C(=O)N[C@@H](Cc1ccc(O)cc1)C(=O)N[C@@H](CO)C(=O)N[C@H](C(=O)N[C@@](C)(CC(C)C)C(=O)N[C@@H](CC(C)C)C(=O)N[C@@H](CC(=O)O)C(=O)N[C@@H](CCCCN)C(=O)N[C@@H](CCCCNC(=O)COCCOCCNC(=O)COCCOCCNC(=O)CC[C@H](NC(=O)CCCCCCCCCCCCCCCCCCC(=O)O)C(=O)O)C(=O)N[C@@H](Cc1c[nH]cn1)C(=O)N[C@@H](CCC(N)=O)C(=O)NC(C)(C)C(=O)N[C@@H](CC(=O)O)C(=O)N[C@@H](Cc1ccccc1)C(=O)N[C@H](C(=O)N[C@@H](CCC(=O)O)C(=O)N[C@@H](Cc1ccncc1)C(=O)N[C@@H](CC(C)C)C(=O)N[C@@H](CC(C)C)C(=O)N[C@@H](CCC(=O)O)C(=O)N[C@@H](C)C(=O)NCC(=O)N1CCC[C@H]1C(=O)N[C@@H](CO)C(=O)N[C@@H](CO)C(=O)NCC(=O)N[C@@H](C)C(=O)N1CCC[C@H]1C(=O)N1CCC[C@H]1C(=O)N1CCC[C@H]1C(=O)N[C@@H](CO)C(N)=O)C(C)C)[C@@H](C)CC [Example 3] | 381 | 1764 | 12.1 | 0.57 | 60 | 88.8 | 0 | 130 | 3.03 | 7.67 | 12 | 24.9 |
